{"source": "patent US12203088B2", "about": "“Root-secreted peptide PEP1 in rice and gene encoding the same and use thereof” (ZHEJIANG UNIVERSITY, priority 2021, dated 2025)", "key": {"[1]": {"test_system": "OsPEP1 overexpressing transgenic plants", "test": "Exogenous PEP1 on root tips of OsPEP1 overexpressing transgenic plants", "assay_type": "in vivo, rice Xiushui 134", "conditions": "transgenic plant OE2, 10^−6 M PEP1 for 2 days", "excerpt": "(§1) E is the statistics of the apical meristem length indicated in D. Data are means±SD (n≥15 independent seedlings, three biological replicates). Different letters indicate significant differences (P<0.01, ANOVA, LSD test);\nF is the statistics of the cell length in the elongation zone indicated in D. Data are means±SD (n≥15 independent seedlings, three biological replicates). Different letters indicate significant differences (P<0.01, ANOVA, LSD test).\nIn the obtained T2 OsPEP1 overexpressing transgenic rice plants, three representative plants (OE1, OE2, OE3) were chosen for phenotypic analysis. […] The relative expression levels of endogenous OsPEP1 in Xiushui 134 and OsPEP1 overexpressing transgenic plants (OE1, OE2, OE3) were analyzed by quantitative real-time PCR (primers: […] (SEQ ID NO: 9); […] (SEQ ID NO: 10))."}, "[2]": {"test_system": "OsPEP1 RNAi transgenic plants", "test": "Exogenous PEP1 on root tips of OsPEP1 RNAi transgenic plants", "assay_type": "in vivo, rice Xiushui 134", "conditions": "transgenic plant Ri2, 10^−6 M PEP1 for 2 days", "excerpt": "D is the longitudinal phenotype of the root tip elongation zone (top) and meristem (bottom) of the wild-type WT and the transgenic plant Ri2 […] treated with 10^−6 M PEP1 for 2 days. Bar=100 μm;\nas §1\nF is the statistics of cell length in the elongation zone indicated in D. Data are means±SD (n≥15 independent seedlings, three biological replicates). Different letters indicate significant differences (P<0.01, ANOVA, LSD test).\nIn the obtained T2 OsPEP1 RNAi transgenic plants, three representative plants (Ri1, Ri2, Ri3) were selected for phenotypic analysis. […] The relative expression levels of endogenous OsPEP1 in Xiushui 134 and those OsPEP1 RNAi transgenic plants (Ri1, Ri2, Ri3) were analyzed by quantitative real-time PCR (primers: […] (SEQ ID NO: 9); […] (SEQ ID NO: 10)). […] Additionally, exogenous application of PEP1 could restore the root tip defected phenotype of OsPEP1 RNAi transgenic plants to the Xiushui 134 level (D-F in FIG. 5)."}, "rice seedlings": {"test_system": "rice seedlings", "test": "Treatment of rice seedlings with synthetic PEP1, primary root length", "assay_type": "in vivo, Oryza sativa L. ssp. Japonica cv. Xiushui134", "conditions": "wild-type seedlings, different concentrations of synthetic PEP1, treatment from sowing for 7 days", "excerpt": "Different letters indicate significant differences (P<0.01, ANOVA, LSD test);"}, "rice root tips": {"test_system": "rice root tips", "test": "Root tip longitudinal sections of wild-type rice after PEP1 treatment", "assay_type": "in vivo, Oryza sativa L. ssp. Japonica cv. Xiushui134", "parameters": "length of cells in the elongation zone of rice root tips: dose or concentration left out as unconfirmed", "conditions": "wild-type plants"}}}
{"substance": "Ser-Asp-Phe-Asp-Arg (SDFDR; Amino acid sequence of PEP1) [rice root-secreted peptide of five amino acids, artificially synthesized for exogenous application]", "values": [{"measurement": "restoration of root tip defected phenotype to the Xiushui 134 level", "setting": "[1]", "result": "could not restore"}, {"measurement": "restoration of root tip defected phenotype to the Xiushui 134 level", "setting": "[2]", "result": "could restore"}, {"measurement": "rice primary root elongation", "setting": "rice seedlings", "result": "significantly inhibited rice primary root elongation"}, {"measurement": "length of the meristem of rice root tips", "setting": "rice root tips; 106 M PEP1 for 2 days", "result": "significantly shortened"}, {"measurement": "length of cells in the elongation zone of rice root tips", "setting": "rice root tips; PEP1 for 2 days", "result": "significantly shortened"}, {"measurement": "changes in the quiescent center", "setting": "rice root tips; root section after PEP1 treatment", "result": "no significant changes"}]}
